For series [1], the system named is UPR proteins (BIP, PERK, phosphorylated eIF2α, calnexin). Nature of the series: UPR protein immunoblot. Format: cell-based, Human. The following applies: ANBL6.BR (1 μM) and MM.1S (WL40 200 nM, RA190 300 nM).
The subject of the next series is MM.1S cells. Nature of the series: MM.1S cell viability (WST). The following applies: for combination effect on viability (isobologram, CI): 48 hours, WST.
The next series has as its system human MM.1S MM tumors. Nature of the series: Human MM xenograft model. The series is classed as in vivo. The note with it: for host survival / tumor growth: MM.1S-bearing mice, i.p., WL40 14.7 μM/kg, RA190 26.8 μM/kg; for host survival: twice weekly; for tumor growth: twice weekly for 18 days. The procedure:
FIG. 23B are Kaplan-Meier plots which show survival of mice. […] The lysates were subjected to the immunoblot analysis using anti-polyubiquitin, anti-cleaved-caspase-8, or anti-β-actin Abs. FIG. 23D show tumor sections from the vehicle control, and WL40-treated mice that were stained with anti-polyubiquitin, Ki67, caspase-3 (cleaved form), and CD31 antibodies. Scale bar, 10 μm.
Animal model studies were performed as described previously.^32, 33, 36 Briefly, CB17 SCID mice were subcutaneously inoculated with 5.0×10^6 MM.1S cells. When tumors were measurable (100 mm^3) at approximately 3 weeks after MM-cell injection, mice (10 mice/group) were treated on a twice-weekly schedule with vehicle alone, WL40, or RA190. Mice were euthanized when tumor volume reached institutional limit (2000 mm^3). All animal experiments protocols were approved by and conformed to the relevant regulatory standards of the Institutional Animal Care and Use Committee at the Dana-Farber Cancer Institute.
Tumors were harvested from WL40-treated and control animals. Tumor sections were fixed and paraffin embedded for immunostaining to detect growth inhibition (Ki67), apoptosis (cleaved caspase-3), poly-ubiquitination (PolyU), and angiogenesis (CD31), as described previously.^32, 34 Tumor protein lysates from control vehicle- and WL40-treated mice were analyzed for caspase-8, poly-Ubiquitin or β-actin level using immunoblot analyses.
To fully understand the therapeutic potential of the RPN13 degrader, the in vivo efficacy of WL40 was evaluated using the human plasmacytoma xenograft mouse model.^3, 34 This model has been useful in validating novel anti-MM therapies bortezomib, carfilzomib, ixazomib, lenalidomide, and pomalidomide, which have translated to clinical trials and FDA approval.

The target of a further series is RPN13 (Homo sapiens, UniProt Q16186). Nature of the series: Rpn13 immunoblot in MM.1S cells. The series is classed as cell-based. Also on record: endogenous in cells; host or cells: MM.1S; MM.1S-CRBN KO; RPMI-8226; ANBL6.BR. The note with it: MM.1S cells; for Rpn13 levels (immunoblot): 200 nM, 400 nM, 800 nM, 4, 8, 16 hours. On the procedure:
Protein lysates were loaded on SDS-PAGE and transferred to PVDF membrane, and then immunoblotted with anti-alpha tubulin and Rpn13 antibodies.
In FIG. 17, MM.1S cells were treated with RA190 or JQRA at 200 nM and 400 nM, respectively, for 48 hours; and treated with RA190 or JQRA at 200 nM and 800 nM, respectively, for 48 hours. Protein lysates were loaded on SDS-PAGE and transferred to PVDF membrane, and then immunoblotted with anti-alpha tubulin and Rpn13 antibodies.
MM.1S cells, which were treated with DMSO control, bortezomib, or WL40 at indicated concentration for 3 hours; protein lysates were analyzed for different proteasome activities (CT-L, chymotrypsin-like; T-L, trypsin-like; C-L, caspase-like). FIG. 20B is a bar graph showing percent proteasome activity after normalization with DMSO control (mean±SD; n=3). Recombinant 20S proteasome was incubated with DMSO, bortezomib, or WL40 for 30 minutes, followed by assessment of the above-noted proteasome activities. FIG. 20C MM.1S cells were pretreated with exemplary proteasome inhibitor MG132 (10 μM) for 1 hour, followed by addition of WL40 (400 nM) for 8 hours. […] Total protein lysates were subjected to immunoblots for Rpn13 and α-tubulin. […] FIG. 20E ANBL6.BR cells were treated with WL40 (400 nM) or RA190 (500 nM) for 16 hours; protein lysates were subjected to immunoblot analysis using anti-Rpn13 or anti-β-actin Abs.
Cellular protein extracts were prepared using RIPA lysis buffer (50 mM Tris-HCl, 150 mM NaCl, 1% NP-40, 0.5% sodium deoxycholate, and 0.1% SDS). Protein lysates were subjected to immunoblotting using antibodies against poly ADP ribose polymerase (PARP, BD Bioscience Pharmingen, San Diego, Calif.), caspase 3, caspase 8, p53 (Santa Cruz Biotechnology), caspase 9, p-eIF2a (Abeam, Cambridge, Mass.), caspase 7, cyclin B1, CDC25C, CDCl2, p21, Rpn13, PERK, BIP, Calnexin, GFP, LC3A/B, α-tubulin (Cell Signaling, Beverly, Mass.), polyubiquitin (Enzo Life Sciences, Inc., Farmingdale, N.Y.), or β-actin (Sigma-Aldrich, St. Louis, Mo.).
Next, it was examined whether WL40 decreases cellular Rpn13 levels in MM cells. MM.1S cells were treated with various concentrations of WL40 (20 0 nM, 400 nM, or 800 nM) for 4 hours, 8 hours, and 16 hours; protein lysates were then analyzed for Rpn13 levels using immunoblot analysis. […] Decrease in Rpn13 levels was detectable as early as 8 hours after WL40 treatment and maximally (95%) reduced at 16 hours. Rpn13 protein level reduction was not observed with RA190 treatment (FIG. 19E, lower panel). There was no change in protein levels of tubulin, used as a loading control (FIG. 19E). To further corroborate the findings, MM.1S cells were treated with WL40, and then analyzed intracellular alterations in Rpn13 using flow cytometry.

“Also recorded” adds a separate entry of the source.

RPN13, sequence (Q16186 whole entry): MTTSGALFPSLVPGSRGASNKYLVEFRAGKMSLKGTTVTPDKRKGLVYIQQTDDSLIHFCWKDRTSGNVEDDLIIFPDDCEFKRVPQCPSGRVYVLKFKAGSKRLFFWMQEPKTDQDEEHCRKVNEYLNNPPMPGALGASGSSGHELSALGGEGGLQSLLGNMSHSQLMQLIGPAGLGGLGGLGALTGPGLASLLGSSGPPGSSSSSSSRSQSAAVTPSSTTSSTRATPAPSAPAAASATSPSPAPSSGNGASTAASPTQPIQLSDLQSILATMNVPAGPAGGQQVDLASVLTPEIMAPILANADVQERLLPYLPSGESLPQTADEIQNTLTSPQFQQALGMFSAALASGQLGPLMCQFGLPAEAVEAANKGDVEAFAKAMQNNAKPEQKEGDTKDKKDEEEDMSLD

As to `Cl.N[C@@H](Cc1ccccc1)C(=O)N1C/C(=C/c2ccc(Cl)c(Cl)c2)C(=O)/C(=C\c2ccc(Cl)c(Cl)c2)C1` [RA190, reference compound], the “induction of UPR signaling” value in series [1] is “delayed kinetics and to a lesser extent than Rpn13 degrader WL40”. Besides, the “cytotoxicity (percentage of viable cells)” value with MM.1S cells (72 hours) is recorded as “stronger MM cytotoxicity compared to exemplary compound JQRA; also recorded: more robust MM cytotoxicity”. In the series on human MM.1S MM tumors, the host survival entry is given as “extends mice survival” and the tumor growth entry is “attenuates MM tumor progression”. In addition, on RPN13, the “Rpn13 levels (immunoblot)” value is given as “not observed”.

As to `O=C1CCC(N2C(=O)c3cccc(NCCOCCOCCOCCC(=O)N[C@@H](Cc4ccccc4)C(=O)N4C/C(=C\c5ccc(Cl)c(Cl)c5)C(=O)/C(=C/c5ccc(Cl)c(Cl)c5)C4)c3C2=O)C(=O)N1` (stereo partly drawn) [WL40], the “induction of UPR signaling” value in series [1] was “rapid and robust induction of UPR proteins”. For the same compound, the “cell viability IC50” value in the series on MM.1S cells (24 hours, Wst-1) is “lower IC50 compared to compound RA190”. Also, the “combination effect on viability (isobologram, CI)” value with MM.1S cells (WL40 plus bortezomib) is “synergistic anti-MM activity”. For the same compound, the “combination effect on viability (isobologram, CI)” value with MM.1S cells (WL40 plus lenalidomide) is on record as “synergistic anti-MM activity”. In addition, the “combination effect on viability (isobologram, CI)” value in the series on MM.1S cells (WL40 plus pomalidomide) was “synergistic anti-MM activity”. In addition, in the series with human MM.1S MM tumors, the host survival entry is listed as “prolongs host survival” and the tumor growth entry is given as “inhibits xenografted human MM cell growth; also recorded: more potent in vivo anti-MM activity”. In addition, in the series on human MM.1S MM tumors (WL40-treated mice), the tolerability result is listed as “well tolerated”. Also, the body weight loss result in the series on human MM.1S MM tumors (WL40-treated mice (data not shown)) was “no significant weight loss”. For the same compound, in the series with human MM.1S MM tumors (relative to tumors from control mice), the “PolyUb proteins in harvested tumors” value is “increased accumulation of PolyUb proteins”. In addition, in the series on human MM.1S MM tumors (tumor sections), the “angiogenesis in harvested tumors (CD31)” value is on record as “blocks angiogenesis”, the “apoptosis in harvested tumors (cleaved caspase-3)” value is on record as “induces apoptosis” and the “proliferation in harvested tumors (Ki67)” value is given as “decreases proliferation”. Further, the “Rpn13 levels (immunoblot)” value on RPN13 is on record as “degrade Rpn13; also recorded: marked decrease in Rpn13 levels”. Further, on RPN13 (after WL40 treatment), the “time at which decrease in Rpn13 levels is detectable” value stood at 8 h. Moreover, at RPN13 (at 16 hours), the “maximal reduction of Rpn13 levels” value was determined as 95%.
